Measurements as given in patent US20040186166A1, “Cannabinoid analogs as peroxisome proliferator activated nuclear receptor gamma activators” (priority 2002, published 2004).

Experiments:
human IL-8 promoter [1] = assay: IL-8 promoter luciferase assay, HeLa cells with wild type PPARγ; format: cell-based; details: GW347845 control
Description: (§1) For PPARγ activation assay, HEK293 cells were plated in 12-well cell culture plates and maintained in Dulbecco's modified Eagle's medium (DMEM) supplemented with 10% fetal bovine serum (FBS) at 37° C. under 5% CO2. Cells were changed to phenol red-free DMEM supplemented with 10% charcoal-stripped fetal bovine serum 3 hours before transfection by a standard calcium-phosphate precipitation method. Twelve hours after transfection, the cells were washed with phosphate-buffered saline (PBS) and fed again with fresh medium containing the indicated concentrations of compounds. After 36 hours, cells were harvested for β-galactosidase and luciferase activities as described previously (Li et al., Proc Natl Acad Sci USA 94:8479-84, 1997). The average normalized luciferase activity was determined via triplicate experiments. For IL-8 promoter assay, HeLa cells were maintained and transfected in the same way as described above. After transfection, cells were recovered for 4 hours before treatment with AJA, GW347845, or solvent. After 3-4 hours, cells were treated with or without 25 nM of phorbol myristate acetate (PMA) for 24 hours.
The IL-8 luciferase reporter controlled by the human IL-8 promoter (-97/-69) was cotransfected with mPPARγ or mPPARγ ΔAF2 mutant into HeLa cells. After transfection, cells were treated with AJA, GW347845 or solvent after PMA treatment for 24 hours. This was performed by determining the effect of AJA on IL-8 promoter activity and the role of PPARγ in this process. IL-8 is a biomarker for inflammation, and reduction of IL-8 levels correlates with a decrease in inflammation. The involvement of PPARγ in regulating IL-8 promoter activity was determined by comparing the IL-8 promoter activity in the presence of wild type PPARγ or its ΔAF2 mutant. In the experiment illustrated in FIG. 6A, PMA stimulated IL-8 promoter activity 3 fold, which was set as 100% promoter activity.

human IL-8 promoter [2] = assay: IL-8 promoter luciferase assay, HeLa cells with PPARγ ΔAF2 mutant; format: cell-based; details: cells transfected with PPARγ ΔAF2 mutant
Description: as §1, with “After 3-4 hours, cells were treated with or without 25 nM of phorbol myristate acetate (PMA) for 24 hours.” left out
The IL-8 luciferase reporter controlled by the human IL-8 promoter (-97/-69) was cotransfected with mPPARγ or mPPARγ ΔAF2 mutant into HeLa cells. […] The involvement of PPARγ in regulating IL-8 promoter activity was determined by comparing the IL-8 promoter activity in the presence of wild type PPARγ or its ΔAF2 mutant. […]

3T3 L1 fibroblasts = assay: Adipocyte differentiation assay, Oil Red O staining; format: cell-based; details: 1 μM GW347845, 7 days, 10 μg/ml insulin
Description: The adipocyte differentiation assay was performed as described by Mukherjee et. al. (Mol Endocrinol 14: 1425-33, 2000). The 3T3 L1 cells (American Type Culture Collection) were cultured in DMEM media supplemented with 10% calf serum. Two days after reaching confluence, cells were treated with AJA, GW347845, or vehicle (0.1% DMSO) in the presence of 10 μg/ml insulin every other day. After 10 days of treatment with AJA or 7 days with GW347845 at confluence, cells were fixed and stained with Oil Red O (Sigma). For RT-PCR, total cellular RNAs were isolated by TRIzol (Gibco). Reverse transcriptase polymerase chain reaction (RT-PCR) was performed using the superscript first-strand synthesis kit (Invitrogen). After first-strand cDNA was synthesized by use of oligo (dT), cDNA was amplified by PCR. […]
3T3 L1 fibroblasts cells were cultured in DMEM supplemented with 10% calf serum. […] The cells were treated for 10 days with AJA, or 7 days with GW347845, and lipid accumulation in cells was assessed by Oil Red O staining.

[3] = system: PPARγ2 and aP2 gene expression in 3T3 L1 cells; assay: RT-PCR of adipocyte-specific genes; format: cell-based; details: versus vehicle control
Description: The adipocyte differentiation assay was performed as described by Mukherjee et. al. (Mol Endocrinol 14: 1425-33, 2000). The 3T3 L1 cells (American Type Culture Collection) were cultured in DMEM media supplemented with 10% calf serum. Two days after reaching confluence, cells were treated with AJA, GW347845, or vehicle (0.1% DMSO) in the presence of 10 μg/ml insulin every other day. After 10 days of treatment with AJA or 7 days with GW347845 at confluence, cells were fixed and stained with Oil Red O (Sigma). For RT-PCR, total cellular RNAs were isolated by TRIzol (Gibco). Reverse transcriptase polymerase chain reaction (RT-PCR) was performed using the superscript first-strand synthesis kit (Invitrogen). After first-strand cDNA was synthesized by use of oligo (dT), cDNA was amplified by PCR. The forward primers and reverse primers used in the amplifications were 5′-GCTGTTATGGGTGAAACTCTGGGAG-3′(SEQ ID NO: 1), and 5′-CTTCATGAGGCCTGTTGTAGAGC-3′ (SEQ ID NO:2), for PPARγ2, 5′-GAGCAAATGGAGTTCCCAGATG-3′ (SEQ ID NO: 3), and 5′-GCAAACAATGGGAATAGTTCACAGTAG-3′ (SEQ ID NO: 4), for aP2, and 5′-GACCACAGTCCATGCCATCAC-3′(SEQ ID NO: 5), and 5′-CATACCAGGAAATGAGCTGAC-3′ (SEQ ID NO: 6), for GAPDH. PCR amplifications were performed in 50 μL volume with Taq DNA polymerase for 30 cycles.
To confirm that AJA and GW347845 induce 3T3 L1 cell differentiation into adipocytes, the expression levels of the adipocyte-specific genes PPARγ2 and aP2 were measured by RT-PCR. Total RNA was isolated after AJA or GW347845 treatment, and compared with vehicle control. Reverse transcription was conducted and the relative amounts of PPARγ2 and aP2 transcripts were measured by PCR reactions using primer sets specific to each gene. PCR products were analyzed on 1% agarose gel and stained with Ethidium Bromide. […] As a control for the induction specificity and the PCR amplification reaction, the expression levels of GADPH were measured in all samples, and found not affected by any treatment.

PPARγ = target: T1, PPARγ (Homo sapiens, UniProt P37231); assay: Activation of PPARγ by natural cannabinoids (no method given)
T1 sequence (P37231 1-505): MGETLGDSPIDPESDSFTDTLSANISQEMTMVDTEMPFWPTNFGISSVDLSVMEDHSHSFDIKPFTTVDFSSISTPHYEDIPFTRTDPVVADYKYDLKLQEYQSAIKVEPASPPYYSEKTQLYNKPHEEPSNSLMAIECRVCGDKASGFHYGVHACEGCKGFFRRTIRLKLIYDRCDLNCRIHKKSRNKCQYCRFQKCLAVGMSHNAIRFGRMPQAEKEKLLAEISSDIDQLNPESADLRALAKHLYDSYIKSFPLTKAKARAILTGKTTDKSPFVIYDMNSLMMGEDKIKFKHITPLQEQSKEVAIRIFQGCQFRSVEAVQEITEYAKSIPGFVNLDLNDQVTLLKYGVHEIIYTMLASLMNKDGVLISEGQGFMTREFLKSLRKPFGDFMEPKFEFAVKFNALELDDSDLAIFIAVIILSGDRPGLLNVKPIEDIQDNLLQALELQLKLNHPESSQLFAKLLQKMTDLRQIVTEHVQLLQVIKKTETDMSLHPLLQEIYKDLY

SMILES | reduction of IL-8 promoter activity (human IL-8 promoter [1]) | effect on IL-8 promoter activity (human IL-8 promoter [2]) | lipid accumulation, Oil Red O staining (3T3 L1 fibroblasts) | PPARγ2 gene expression [3] | aP2 gene expression [3] | activation of PPARγ (PPARγ)
COC(=O)c1ccccc1N[C@@H](Cc1ccc(OCCc2nc(-c3ccccc3)oc2C)cc1)C(=O)O [GW347845, reference compound] | dramatically reduced IL-8 promoter activity | not with the ΔAF2 mutant | dramatic increase in lipid droplet staining | enhanced PPARγ2 and aP2 gene expression significantly | enhanced PPARγ2 and aP2 gene expression significantly | 
CCCCCc1cc(O)c2c(c1)OC(C)(C)[C@@H]1CCC(C)=C[C@@H]21 [THC, Tetrahydrocannabinol] |  |  |  |  |  | also activate PPARγ
